# According to patent publication US20250320213A1, “Nitrogen-Containing Heterocyclic Compounds” (Pfizer Inc., priority 2024, published 2025):
# Target: T1, STAT6 (Homo sapiens, UniProt P42226)
# T1 construct: stably transfected HaCaT keratinocyte cell line, which expresses NanoLuc luciferase reporter gene under the transcriptional control of the STAT6 responsive promoter; endogenous in cells; host or cells: HaCaT keratinocyte reporter cell line (stably transfected with a NanoLuc reporter)
# T1 sequence (P42226 1-847): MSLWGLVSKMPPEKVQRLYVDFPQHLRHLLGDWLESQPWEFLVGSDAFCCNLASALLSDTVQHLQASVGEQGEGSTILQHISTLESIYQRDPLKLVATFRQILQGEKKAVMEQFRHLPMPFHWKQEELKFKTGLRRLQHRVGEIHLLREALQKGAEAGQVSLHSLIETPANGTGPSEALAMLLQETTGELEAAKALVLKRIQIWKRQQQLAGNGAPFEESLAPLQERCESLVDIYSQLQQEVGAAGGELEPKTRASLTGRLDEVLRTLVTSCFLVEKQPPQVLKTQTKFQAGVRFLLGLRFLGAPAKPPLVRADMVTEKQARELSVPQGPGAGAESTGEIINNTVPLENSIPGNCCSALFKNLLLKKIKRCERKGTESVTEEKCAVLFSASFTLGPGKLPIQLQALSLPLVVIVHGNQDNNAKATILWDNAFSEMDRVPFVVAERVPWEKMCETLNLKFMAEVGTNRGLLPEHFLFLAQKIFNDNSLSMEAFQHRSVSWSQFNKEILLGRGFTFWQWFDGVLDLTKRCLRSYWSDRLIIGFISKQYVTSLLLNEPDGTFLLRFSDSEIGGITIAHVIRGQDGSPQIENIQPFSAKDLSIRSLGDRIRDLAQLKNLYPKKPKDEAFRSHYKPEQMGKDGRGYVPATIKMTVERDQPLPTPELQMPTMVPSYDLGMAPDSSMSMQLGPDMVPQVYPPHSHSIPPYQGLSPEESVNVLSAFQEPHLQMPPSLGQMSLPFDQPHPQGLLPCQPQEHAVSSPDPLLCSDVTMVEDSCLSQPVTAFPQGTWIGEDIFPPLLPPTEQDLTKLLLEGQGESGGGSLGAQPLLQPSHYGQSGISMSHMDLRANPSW
# Experiment: STAT6 Reporter Luciferase Assay (IL-13 stimulated HaCaT keratinocyte NanoLuc reporter cells)
# Type: cell-based
# Details: IL-13 stimulated HaCaT STAT6 NanoLuc reporter cells; read-out: Reporter EC50
# How it was run: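 HaCaT IL-13Ra2-promoter NanoLuc reporter; cpd 2 h 37 °C in DMEM/2% HI FBS; IL-13 0.12 nM final, 4 h; Nano-Glo luminescence.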
row,Compound,EC50
1,"CC(C)n1nc(C(=O)NCc2ccc(NC(=O)N(C)C)cc2)c2c1CCN(c1ccc(C(=O)N3CC(=O)NC(C)(C)C3)cn1)C2 [Example 294, 5-(5-(3,3-dimethyl-5-oxopiperazine-1-carbonyl)pyridin-2-yl)-N-(4-(3,3-dimethylureido)benzyl)-1-isopropyl-4,5,6,7-tetrahydro-1H-pyrazolo[4,3-c]pyridine-3-carboxamide]",0.961 µM
2,"CC(C)n1nc(C(=O)NCc2ccc(NC(=O)N(C)C)cc2)c2c1CCN(c1ccc(C(=O)N3CCC(O)CC3)cn1)C2 [Example 295, N-(4-(3,3-dimethylureido)benzyl)-5-(5-(4-hydroxypiperidine-1-carbonyl)pyridin-2-yl)-1-isopropyl-4,5,6,7-tetrahydro-1H-pyrazolo[4,3-c]pyridine-3-carboxamide]",0.31 µM
3,"CC(C)n1nc(C(=O)NCc2ccc(NC(=O)N(C)C)cc2)c2c1CCN(c1ccc(C(=O)N3CC4(CCC(=O)N4)C3)cn1)C2 [Example 298, N-(4-(3,3-dimethylureido)benzyl)-1-isopropyl-5-(5-(6-oxo-2,5-diazaspiro[3.4]octane-2-carbonyl)pyridin-2-yl)-4,5,6,7-tetrahydro-1H-pyrazolo[4,3-c]pyridine-3-carboxamide]",2.54 µM
4,"CC(=O)N1[C@H](C)CN(C(=O)c2ccc(N3CCc4c(c(C(=O)NCc5ccc(NC(=O)N(C)C)cc5)nn4C(C)C)C3)nc2)C[C@@H]1C [Example 299, 5-(5-((3S,5R)-4-acetyl-3,5-dimethylpiperazine-1-carbonyl)pyridin-2-yl)-N-(4-(3,3-dimethylureido)benzyl)-1-isopropyl-4,5,6,7-tetrahydro-1H-pyrazolo[4,3-c]pyridine-3-carboxamide]",0.241 µM
5,"CC(C)n1nc(C(=O)NCc2ccc(NC(=O)N(C)C)cc2)c2c1CCN(c1ccc(C(=O)N3CC4(CC(=O)N(C)C4)C3)cn1)C2 [Example 300, N-(4-(3,3-dimethylureido)benzyl)-1-isopropyl-5-(5-(6-methyl-7-oxo-2,6-diazaspiro[3.4]octane-2-carbonyl)pyridin-2-yl)-4,5,6,7-tetrahydro-1H-pyrazolo[4,3-c]pyridine-3-carboxamide]",1.42 µM
6,"CC(C)n1nc(C(=O)NCc2ccc(NC(=O)N(C)C)cc2)c2c1CCN(c1ccc(C(=O)N3CC4(CNC(=O)C4)C3)cn1)C2 [Example 327, N-(4-(3,3-dimethylureido)benzyl)-1-isopropyl-5-(5-(7-oxo-2,6-diazaspiro[3.4]octane-2-carbonyl)pyridin-2-yl)-4,5,6,7-tetrahydro-1H-pyrazolo[4,3-c]pyridine-3-carboxamide]",3.2 µM
7,"CC(C)n1nc(C(=O)NCc2ccc(NC(=O)N(C)C)cc2)c2c1CCN(c1ccc(C(=O)N3CC(=O)NCC3(C)C)cn1)C2 [Example 328, 5-(5-(2,2-dimethyl-5-oxopiperazine-1-carbonyl)pyridin-2-yl)-N-(4-(3,3-dimethylureido)benzyl)-1-isopropyl-4,5,6,7-tetrahydro-1H-pyrazolo[4,3-c]pyridine-3-carboxamide]",0.266 µM
8,"CC(=O)NC1(C)CN(C(=O)c2ccc(N3CCc4c(c(C(=O)NCc5ccc(NC(=O)N(C)C)cc5)nn4C(C)C)C3)nc2)C1 [Example 330, 5-(5-(3-acetamido-3-methylazetidine-1-carbonyl)pyridin-2-yl)-N-(4-(3,3-dimethylureido)benzyl)-1-isopropyl-4,5,6,7-tetrahydro-1H-pyrazolo[4,3-c]pyridine-3-carboxamide]",1.98 µM
9,"CC(C)n1nc(C(=O)NCc2ccc(NC(=O)N(C)C)cc2)c2c1CCN(c1ccc(C(=O)N3Cc4cnn(C)c4C3)cn1)C2 [Example 363, N-(4-(3,3-dimethylureido)benzyl)-1-isopropyl-5-(5-(1-methyl-1,4,5,6-tetrahydropyrrolo[3,4-c]pyrazole-5-carbonyl)pyridin-2-yl)-4,5,6,7-tetrahydro-1H-pyrazolo[4,3-c]pyridine-3-carboxamide]",0.007 µM
10,"CC(C)n1nc(C(=O)NCc2ccc(NC(=O)N(C)C)cc2)c2c1CCN(c1ccc(C(=O)N3CCc4nn(C)cc4C3)cn1)C2 [Example 364, N-(4-(3,3-dimethylureido)benzyl)-1-isopropyl-5-(5-(2-methyl-4,5,6,7-tetrahydro-2H-pyrazolo[4,3-c]pyridine-5-carbonyl)pyridin-2-yl)-4,5,6,7-tetrahydro-1H-pyrazolo[4,3-c]pyridine-3-carboxamide]",0.02 µM

# Further lines, results first:
row,EC50,Compound
1,0.523 µM,"CC(=O)N1C[C@@H]2CN(C(=O)c3ccc(N4CCc5c(c(C(=O)NCc6ccc(NC(=O)N(C)C)cc6)nn5C(C)C)C4)nc3)C[C@@H]2C1 [Example 296, 5-(5-((3aR,6aS)-5-acetyloctahydropyrrolo[3,4-c]pyrrole-2-carbonyl)pyridin-2-yl)-N-(4-(3,3-dimethylureido)benzyl)-1-isopropyl-4,5,6,7-tetrahydro-1H-pyrazolo[4,3-c]pyridine-3-carboxamide]"
2,0.225 µM,"CC(C)n1nc(C(=O)NCc2ccc(NC(=O)N(C)C)cc2)c2c1CCN(c1ccc(C(=O)N3CC[C@@H](C#N)C3)cn1)C2 [Example 297, (R)-5-(5-(3-cyanopyrrolidine-1-carbonyl)pyridin-2-yl)-N-(4-(3,3-dimethylureido)benzyl)-1-isopropyl-4,5,6,7-tetrahydro-1H-pyrazolo[4,3-c]pyridine-3-carboxamide]"
3,0.002 µM,"[2H]C([2H])([2H])N(C(=O)Nc1ccc(CNC(=O)c2nn(C(C)C)c3c2CN(c2ccc(C(=O)N(C)C)cc2)C[C@@H]3C)cc1)C([2H])([2H])[2H] [Example 315, (S)-N-(4-(3,3-bis(methyl-d3)ureido)benzyl)-5-(4-(dimethylcarbamoyl)phenyl)-1-isopropyl-7-methyl-4,5,6,7-tetrahydro-1H-pyrazolo[4,3-c]pyridine-3-carboxamide]"
4,0.71 µM,"CC(C)n1nc(C(=O)NCc2ccc(NC(=O)N(C)C)cc2)c2c1CCN(c1ccc(C(=O)N3CC(=O)N[C@H](C)C3)cn1)C2 [Example 325, (R)-N-(4-(3,3-dimethylureido)benzyl)-1-isopropyl-5-(5-(3-methyl-5-oxopiperazine-1-carbonyl)pyridin-2-yl)-4,5,6,7-tetrahydro-1H-pyrazolo[4,3-c]pyridine-3-carboxamide]"
5,1.28 µM,"CC(C)n1nc(C(=O)NCc2ccc(NC(=O)N(C)C)cc2)c2c1CCN(c1ccc(C(=O)N3CC4(CCO4)C3)cn1)C2 [Example 326, 5-(5-(1-oxa-6-azaspiro[3.3]heptane-6-carbonyl)pyridin-2-yl)-N-(4-(3,3-dimethylureido)benzyl)-1-isopropyl-4,5,6,7-tetrahydro-1H-pyrazolo[4,3-c]pyridine-3-carboxamide]"
6,1.05 µM,"CC(C)n1nc(C(=O)NCc2ccc(NC(=O)N(C)C)cc2)c2c1CCN(c1ccc(C(=O)N3CCC4(CCC(=O)N4)CC3)cn1)C2 [Example 329, N-(4-(3,3-dimethylureido)benzyl)-1-isopropyl-5-(5-(2-oxo-1,8-diazaspiro[4.5]decane-8-carbonyl)pyridin-2-yl)-4,5,6,7-tetrahydro-1H-pyrazolo[4,3-c]pyridine-3-carboxamide]"
7,0.16 µM,"CC(C)n1nc(C(=O)NCc2ccc(NC(=O)N(C)C)cc2)c2c1CCN(c1ccc(C(=O)N(C)CCO)cn1)C2 [Example 332, N-(4-(3,3-dimethylureido)benzyl)-5-(5-((2-hydroxyethyl)(methyl)carbamoyl)pyridin-2-yl)-1-isopropyl-4,5,6,7-tetrahydro-1H-pyrazolo[4,3-c]pyridine-3-carboxamide]"
